Test results from US20040087571A1, “Methods of using CCR1 antagonists as immunomodulatory agents” (Pfizer Inc, priority 2002, published 2004).

Tests used:
Solubility = format: physicochemical

solubility (Solubility) | melting point | Structure (SMILES)
> 250 mg/mL |  | CC(C)(O)CC[C@H](C[C@H](O)[C@H](Cc1cccs1)NC(=O)c1cnc2ccccc2n1)C(N)=O [Example 313, Quinoxaline-2-carboxylic Acid (4(r)-carbamoyl-2(s),7-dihydroxy-7-methyl-1(s)-thiophen-2-ylmethyl-octyl)-amide]
 | 206 to 209 °C | NC(=O)[C@H](Cc1ccccc1)C[C@H](O)[C@H](Cc1ccccc1)NC(=O)c1cnc2c(F)cccc2c1 [Example 285, 8-Fluoro-quinoline-3-carboxylic acid (1(S)-benzyl-4(R)-carbamoyl-2(S)-hydroxy-5-phenyl-pentyl)-amide]
 | 155 to 158 °C | CC(C)(O)CC[C@H](C[C@H](O)[C@H](Cc1cccc2ccccc12)NC(=O)c1cnc2ccccc2n1)C(N)=O [Example 324, Quinoxaline-2-carboxylic acid (4(R)-carbamoyl-2(S),7-dihydroxy-7-methyl-1(S)-naphthalen-1-ylmethyl-octyl)-amide]
 | 147 to 148 °C | CC(C)(O)CC[C@H](C[C@H](O)[C@H](Cc1ccccc1F)NC(=O)c1cnc2ccccc2n1)C(N)=O [Example 321, Quinoxaline-2-carboxylic acid [4(R)-carbamoyl-1(S)-(2-fluoro-benzyl)-2(S),7-dihydroxy-7-methyl-octyl]-amide]
 | 123 to 125 °C | NC(=O)[C@@H](C[C@H](O)[C@H](Cc1ccccc1)NC(=O)c1cnc2ccccc2n1)C1(O)CCSCC1 [Example 269, Quinoxaline-2-carboxylic acid [1(S)-benzyl-4(S)-carbamoyl-2(S)-hydroxy-4-(4-hydroxy-tetrahydro-thiopyran-4-yl)-butyl]-amide]
 | 192 to 195 °C | NC(=O)[C@@H](C[C@H](O)[C@H](Cc1ccccc1)NC(=O)c1cnc2ccccc2n1)C1(O)CCCC1 [Example 277, Quinoxaline-2-carboxylic acid [1(S)-benzyl-4(S)-carbamoyl-2(S)-hydroxy-4-(1-hydroxy-cyclopentyl)-butyl]-amide]
 | 198 to 201 °C | CNC(=O)[C@H](CC1CCCCC1)C[C@H](O)[C@H](Cc1ccc(Cl)cc1)NC(=O)c1cnc2ccccc2c1 [Example 71, Quinoline-3-carboxylic acid [1(S)-(4-chloro-benzyl)-5-cyclohexyl-2(S)-hydroxy-4(R)-methylcarbamoyl-pentyl]-amide]
